Assay results from patent EP0172321B1, “Squarylium charge generating dye and electrophotographic photoconductor” (International Business Machines Corporation, priority 1984, dated 1986).
Several values for one entry are separate records, joined by “and”; a condition that tells them apart may be missing. Identical values can stand only once.

Key:
[1] = test system: Salmonella typhimurium: TA1535, TA1537, TA1538, TA98 and TA100; test: Ames Salmonella/microsome assay, five standard strains; type: cell-based; design: unit not given here; conditions: Ames plates, DMSO solvent
Description: (§1) This mutagenicity testing was performed using DMSO as the solvent. Six dose levels were tested in duplicate, with and without metabolic activation, in five tester strains (TA1535, TA1537, TA1538, TA98, and TA100). The tests were repeated to ensure reproducibility.
Ames test of the 2,4-di-(o-hydroxy-p-pyrrolidino phenyl) cyclobutene diylium-1,3-diolate (hydroxy pyrrolidino squarylium or OHPYRRSQ) of the present invention dye was conducted.
This compound was examined for mutagenic activity in the Ames Salmonella/microsome assay using the five standard strains of Salmonella typhimurium: TA1535, TA1537, TA1538, TA98 and TA100. All assays were performed in duplicate, both in the presence and the absence of a rat-liver metabolic activation system. DMSO was used as the solvent.
The compound was tested on two separate days at doses ranging from […]. Low-level S-9 was used in the first assay and high-level S-9 was used in the confirming assay.

[2] = Ames test for mutagenicity, tester strain TA98; type: cell-based, Salmonella typhimurium; conditions: read-out: TA98 × background
Description: (§2) Ames test of the prior art dye 2,4-di-(o-hydroxy-p-dimethylamino phenyl) cyclobutene diylium-1,3- diolate was then conducted. This dye is of the type shown in Example 11 of aforesaid US-A-3,824,099.
as §1

TA98 = test: Ames test for mutagenicity, tester strain TA98; type: cell-based, Salmonella typhimurium
Description: as §2, §1

TA1538 = test: Ames test for mutagenicity, tester strain TA1538; type: cell-based, Salmonella typhimurium
Description: as §2, §1

[3] = Ames test for mutagenicity, tester strain TA1538; type: cell-based, Salmonella typhimurium
Description: as §2, §1

[4] = purified dye, dimethylamino phenol precursor distilled, DMSO solvent, replicate Test no./Assay no.
[5] = without purification of the dye, replicate Assay no.

Row | SMILES | Dose level at and above which precipitate was observed [1] | fold induction ([2]; ames ta98, purified dye, dimethylamino phenol precursor distilled, DMSO solvent, replicate Test no./Assay no.) | fold induction ([2]; ames ta98, without purification of the dye, replicate Assay no.) | TA98 × background (TA98; [4]) | TA98 × background (TA98; [5]) [× background] | TA1538 × background (TA1538; [4]) | TA1548 × background (TA1538; [5]) [× background] | fold induction ([3]; ames ta1538, purified dye, dimethylamino phenol precursor distilled, DMSO solvent, replicate Test no./Assay no., read-out: TA1538 × background) | fold induction ([3]; ames ta1538, without purification of the dye, replicate Assay no., read-out: TA1548 × background)
1 | O=C1C(=C2C=CC(=[N+]3CCCC3)C=C2O)C([O-])=C1c1ccc(N2CCCC2)cc1O [OHPYRRSQ, 2,4-di-(o-hydroxy-p-pyrrolidinophenyl) cyclobutene diylium-1,3-diolate] | ≥ 500 | – | – | – | – | – | – | – | –
2 | CN(C)c1ccc(C2=C([O-])C(=C3C=CC(=[N+](C)C)C=C3O)C2=O)c(O)c1 [OHSQ, 2,4-di-(o-hydroxy-p-dimethylaminophenyl) cyclobutene diylium-1,3-diolate] | – | 2.4 | 2.6 | 2.3 × background and 2.7 × background and 2.90 × background | 3.3 | 2.9 × background and 2.8 × background and 3.3 × background | 6.8 | 2.9 | 4.9
